Experimental data: BindingDB's records for doi:10.1124/jpet.104.081224 (German Cancer Research Center, 2005)

Experiments:
[1] = target: T1, Solute carrier organic anion transporter family member 1B3 (Homo sapiens, UniProt Q9NPD5)
T1 sequence (Q9NPD5 whole entry): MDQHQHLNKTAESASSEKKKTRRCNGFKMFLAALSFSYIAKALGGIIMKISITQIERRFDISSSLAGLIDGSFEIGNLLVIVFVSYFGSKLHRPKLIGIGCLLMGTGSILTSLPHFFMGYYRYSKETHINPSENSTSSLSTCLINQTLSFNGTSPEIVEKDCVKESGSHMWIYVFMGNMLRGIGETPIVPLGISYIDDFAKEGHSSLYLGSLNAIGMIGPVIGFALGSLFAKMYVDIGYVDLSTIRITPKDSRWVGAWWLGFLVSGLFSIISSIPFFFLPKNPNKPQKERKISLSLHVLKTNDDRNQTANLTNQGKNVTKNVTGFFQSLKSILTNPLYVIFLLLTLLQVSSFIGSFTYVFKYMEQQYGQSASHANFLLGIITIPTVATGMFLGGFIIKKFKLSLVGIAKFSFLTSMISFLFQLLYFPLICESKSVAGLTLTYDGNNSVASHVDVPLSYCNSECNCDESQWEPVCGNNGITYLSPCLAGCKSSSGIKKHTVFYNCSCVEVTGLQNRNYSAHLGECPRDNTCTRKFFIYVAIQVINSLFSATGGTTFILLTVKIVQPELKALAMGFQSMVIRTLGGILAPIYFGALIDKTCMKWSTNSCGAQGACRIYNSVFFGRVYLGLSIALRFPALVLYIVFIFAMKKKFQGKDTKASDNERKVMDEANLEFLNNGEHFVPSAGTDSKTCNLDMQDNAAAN

[2] = target: ATP-binding cassette sub-family C member 2 (Homo sapiens, UniProt Q92887)
Sequence of ATP-binding cassette sub-family C member 2 (Q92887 whole entry): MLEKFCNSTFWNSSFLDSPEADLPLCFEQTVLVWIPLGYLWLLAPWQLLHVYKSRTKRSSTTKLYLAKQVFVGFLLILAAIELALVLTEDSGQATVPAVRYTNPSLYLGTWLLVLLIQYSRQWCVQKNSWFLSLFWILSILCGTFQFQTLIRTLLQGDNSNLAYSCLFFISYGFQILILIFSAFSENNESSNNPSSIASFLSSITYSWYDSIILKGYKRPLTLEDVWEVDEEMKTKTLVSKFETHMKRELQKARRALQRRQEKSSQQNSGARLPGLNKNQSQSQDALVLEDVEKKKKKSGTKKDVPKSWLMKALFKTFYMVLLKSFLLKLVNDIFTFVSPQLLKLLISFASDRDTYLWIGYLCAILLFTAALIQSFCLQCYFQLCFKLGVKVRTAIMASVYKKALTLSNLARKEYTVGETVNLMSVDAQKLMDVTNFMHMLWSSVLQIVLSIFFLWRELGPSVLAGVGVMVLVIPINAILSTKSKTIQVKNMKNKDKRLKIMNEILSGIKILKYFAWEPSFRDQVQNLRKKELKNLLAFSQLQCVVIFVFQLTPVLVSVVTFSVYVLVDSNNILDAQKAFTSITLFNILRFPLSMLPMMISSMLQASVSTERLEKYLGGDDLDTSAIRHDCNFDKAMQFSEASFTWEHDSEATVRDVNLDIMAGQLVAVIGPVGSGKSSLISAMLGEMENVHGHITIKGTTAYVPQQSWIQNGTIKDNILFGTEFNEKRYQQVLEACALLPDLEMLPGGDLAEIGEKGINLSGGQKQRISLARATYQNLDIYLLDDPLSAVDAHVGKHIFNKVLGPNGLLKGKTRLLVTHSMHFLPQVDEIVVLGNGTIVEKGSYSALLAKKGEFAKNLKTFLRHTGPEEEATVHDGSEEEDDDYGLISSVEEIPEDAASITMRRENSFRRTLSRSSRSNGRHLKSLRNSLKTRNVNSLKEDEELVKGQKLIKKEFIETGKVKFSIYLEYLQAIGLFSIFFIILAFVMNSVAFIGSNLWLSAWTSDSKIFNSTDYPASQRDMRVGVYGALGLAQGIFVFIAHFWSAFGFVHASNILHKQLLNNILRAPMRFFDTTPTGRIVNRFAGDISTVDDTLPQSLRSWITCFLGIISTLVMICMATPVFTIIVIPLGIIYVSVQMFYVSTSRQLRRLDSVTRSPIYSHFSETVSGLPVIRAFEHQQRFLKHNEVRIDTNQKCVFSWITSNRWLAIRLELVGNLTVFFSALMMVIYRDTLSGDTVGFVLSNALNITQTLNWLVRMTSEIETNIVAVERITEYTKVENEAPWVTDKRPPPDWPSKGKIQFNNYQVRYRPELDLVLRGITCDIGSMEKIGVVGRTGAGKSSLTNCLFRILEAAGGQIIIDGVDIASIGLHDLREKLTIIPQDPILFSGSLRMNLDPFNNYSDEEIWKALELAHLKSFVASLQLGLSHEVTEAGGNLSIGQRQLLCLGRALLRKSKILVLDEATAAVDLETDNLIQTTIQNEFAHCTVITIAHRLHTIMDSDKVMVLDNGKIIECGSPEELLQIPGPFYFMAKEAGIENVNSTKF

Ki [1]: 0.6 µM | Ki [2]: 8.5 µM
Structure (SMILES): CN(C)C(=O)CCSC(SCCC(=O)O)c1cccc(C=Cc2ccc3ccc(Cl)cc3n2)c1 (configuration not stated) [NSC_60719]
